Data taken from patent EP0183174A2, “Substituted phenoxy urea, processes for its preparation and herbicide containing it as active ingredient” (KUMIAI CHEMICAL INDUSTRY CO., LTD., priority 1984, dated 1986).

Key:
[1] = system: barnyardgrass (Echinochloa crus-galli L.); assay: Test Example 1: herbicidal test by water treatment in a paddy field; format: in vivo; set-up: key: 5: Withered; 4.5: Herbicidal effect (or phytotoxicity) in a range of 90 to 99%; 4: Herbicidal effect (or phytotoxicity) in a range of 80 to 89%; 3.5: Herbicidal effect (or phytotoxicity) in a range of 70 to 79%; 3: Herbicidal effect (or phytotoxicity) in a range of 60 to 69%; 2.5: Herbicidal effect (or phytotoxicity) in a range of 50 to 59%; 2: Herbicidal effect (or phytotoxicity) in a range of 40 to 49%; 1.5: Herbicidal effect (or phytotoxicity) in a range of 30 to 39%; 1: Herbicidal effect (or phytotoxicity) in a range of 20 to 29%; 0.5: Herbicidal effect (or phytotoxicity) in a range of 1 to 19%; 0: No herbicidal effect (or no phytotoxicity); conditions: evaluated thirty days after application
Experimental: (§1) Into each porcelain pot having a diameter of 10 cm, paddy soil was filled and puddled, and seeds of barnyardgrass (Echinochloa crus-galli L.), smallflower flatsedge, monochoria and Japanese bulrush were sown, and water was filled in a-depth of 3 cm. One day later, a predetermined amount of the wettable powder prepared in Formulation Example 3 and diluted with water was dropwise applied to the surface of the water (dose of the active ingredient: 4 kg/hectare). Thereafter, they were grown in a green house. Thirty days after the application, the herbicidal effects were evaluated in accordance with the standards as identified in Table 5.

smallflower flatsedge = assay: as above; format: in vivo, Cvperus diffcrmis L.; set-up: key: 5: Withered; 4.5: Herbicidal effect (or phytotoxicity) in a range of 90 to 99%; 4: Herbicidal effect (or phytotoxicity) in a range of 80 to 89%; 3.5: Herbicidal effect (or phytotoxicity) in a range of 70 to 79%; 3: Herbicidal effect (or phytotoxicity) in a range of 60 to 69%; 2.5: Herbicidal effect (or phytotoxicity) in a range of 50 to 59%; 2: Herbicidal effect (or phytotoxicity) in a range of 40 to 49%; 1.5: Herbicidal effect (or phytotoxicity) in a range of 30 to 39%; 1: Herbicidal effect (or phytotoxicity) in a range of 20 to 29%; 0.5: Herbicidal effect (or phytotoxicity) in a range of 1 to 19%; 0: No herbicidal effect (or no phytotoxicity); conditions: evaluated thirty days after application
Experimental: as §1

monochoria = assay: as above; format: in vivo, Monochoria vaginalis Presl; set-up: key: 5: Withered; 4.5: Herbicidal effect (or phytotoxicity) in a range of 90 to 99%; 4: Herbicidal effect (or phytotoxicity) in a range of 80 to 89%; 3.5: Herbicidal effect (or phytotoxicity) in a range of 70 to 79%; 3: Herbicidal effect (or phytotoxicity) in a range of 60 to 69%; 2.5: Herbicidal effect (or phytotoxicity) in a range of 50 to 59%; 2: Herbicidal effect (or phytotoxicity) in a range of 40 to 49%; 1.5: Herbicidal effect (or phytotoxicity) in a range of 30 to 39%; 1: Herbicidal effect (or phytotoxicity) in a range of 20 to 29%; 0.5: Herbicidal effect (or phytotoxicity) in a range of 1 to 19%; 0: No herbicidal effect (or no phytotoxicity); conditions: evaluated thirty days after application
Experimental: as §1

Japanese bulrush = assay: as above; format: in vivo, Scir^pus juncoides Roxb.; set-up: key: 5: Withered; 4.5: Herbicidal effect (or phytotoxicity) in a range of 90 to 99%; 4: Herbicidal effect (or phytotoxicity) in a range of 80 to 89%; 3.5: Herbicidal effect (or phytotoxicity) in a range of 70 to 79%; 3: Herbicidal effect (or phytotoxicity) in a range of 60 to 69%; 2.5: Herbicidal effect (or phytotoxicity) in a range of 50 to 59%; 2: Herbicidal effect (or phytotoxicity) in a range of 40 to 49%; 1.5: Herbicidal effect (or phytotoxicity) in a range of 30 to 39%; 1: Herbicidal effect (or phytotoxicity) in a range of 20 to 29%; 0.5: Herbicidal effect (or phytotoxicity) in a range of 1 to 19%; 0: No herbicidal effect (or no phytotoxicity); conditions: evaluated thirty days after application
Experimental: as §1

barnyardgrass = assay: Test Example 2: herbicidal test for selectivity between rice and barnyardgrass (herbicidal effects); format: in vivo, Echinochloa crus-galli L.; conditions: barnyardgrass of 2-leaf stage, thirty days after application
Experimental: (§2) Into each 1/5000 are Wager pot, paddy soil was filled and puddled, then seeds of barnyardgrass were sown and grown until they reached 2-leaf stage. The barnyardgrass of 2-leaf stage was thinned out to adjust the number of barnyardgrass to fifteen per pot, and rice seedlings of 2-leaf stage were transplanted in the same pot. […] Thereafter, they were grown in a green house, and thirty days after the application, the herbicidal effects and phytotoxicity were evaluated in accordance with the standards as identified in Table 5.

Paddy rice = assay: Test Example 2: herbicidal test for selectivity between rice and barnyardgrass (phytotoxicity); format: in vivo; conditions: thirty days after application
Experimental: as §2

[2] = Herbicidal activity of the prior-art compound, used in the same manner as the compound of the invention (general statement); format: in vivo; conditions: used in the same manner as the compound of the present invention
[3] = water treatment in paddy field pot, dose of active ingredient 4 kg/hectare
[4] = dose of the active ingredient 4 kg/hectare, wettable powder applied to water surface one day after sowing

For “3-(2,5-Dichlorophenoxy)-1,1-dimethyl urea trichloroacetate [Compound No. 185]”, the “Herbicidal effects Barnyard grass” value [1, 3] was 5, the “Herbicidal effects Small flower flatsedge” value (smallflower flatsedge; [3]) was 5 and the “Herbicidal effects Monochoria” value (monochoria; [3]) was 5. The “Herbicidal effects Japanese bulrush” value (Japanese bulrush; [3]) was 5.

In the case of “3-(3,5-Dichlorophenoxy)-1,1-dimethyl urea trichloroacetate [Compound No. 184]”, the “Herbicidal effects Barnyard grass” value [1, 3] is reported as 5, the “Herbicidal effects Small flower flatsedge” value (smallflower flatsedge; [3]) is reported as 5 and the “Herbicidal effects Monochoria” value (monochoria; [3]) is reported as 5. For the same molecule, the “Herbicidal effects Japanese bulrush” value (Japanese bulrush; [3]) was 5.

With `NC(=O)NOc1cccc(Cl)c1` [Comparative Compound] the “Herbicidal effects Barnyard grass” value [1, 3] was 0, the “Herbicidal effects Small flower flatsedge” value (smallflower flatsedge; [3]) was 0 and the “Herbicidal effects Monochoria” value (monochoria; [3]) was 0. For the same molecule, the “Herbicidal effects Japanese bulrush” value (Japanese bulrush; [3]) was 0.

With `C=CCNC(=O)NOc1cc(Cl)ccc1Cl` [Compound No. 2, 1-Allyl-3-(2,5-dichlorophenoxy) urea] the “Herbicidal effects Barnyard grass” value [1, 4] was 5, the “Herbicidal effects Small flower flatsedge” value (smallflower flatsedge; [4]) was 5 and the “Herbicidal effects Monochoria” value (monochoria; [4]) was 5. The “Herbicidal effects Japanese bulrush” value (Japanese bulrush; [4]) was 5, the “Herbicidal effects Barnyard grass” value (barnyardgrass; Dose 0.5 kg/Ha) was 5 and the “Herbicidal effects Barnyard grass” value (barnyardgrass; Dose 1 kg/Ha) was 5. For the same molecule, the “Phytotoxicity Paddy rice” value (Paddy rice; Dose 0.5 kg/Ha, transplanted rice seedlings of 2-leaf stage) was 0 and the “Phytotoxicity Paddy rice” value (Paddy rice; Dose 1 kg/Ha, transplanted rice seedlings of 2-leaf stage) was 1 (Herbicidal effect (or phytotoxicity) in a range of 20 to 29%).

With `O=C(NOc1cccc(Cl)c1Cl)NC1CCCCC1` [Compound No. 3, 1-Cyclohexyl-3-(2,3-dichlorophenoxy) urea] the “Herbicidal effects Barnyard grass” value [1, 4] was 5, the “Herbicidal effects Small flower flatsedge” value (smallflower flatsedge; [4]) was 5 and the “Herbicidal effects Monochoria” value (monochoria; [4]) was 5. For the same molecule, the “Herbicidal effects Japanese bulrush” value (Japanese bulrush; [4]) was 5.

With `CN(C)C(=O)Nc1ccc(Cl)c(Cl)c1` [DCMU, reference compound] the “Herbicidal effects Barnyard grass” value (barnyardgrass; Dose 0.25 kg/Ha, water surface application) was 3 (Herbicidal effect (or phytotoxicity) in a range of 60 to 69%), the “Herbicidal effects Barnyard grass” value (barnyardgrass; Dose 0.5 kg/Ha, water surface application) was 5 and the “Herbicidal effects Barnyard grass” value (barnyardgrass; Dose 1 kg/Ha, water surface application) was 5. For the same molecule, the “Phytotoxicity Paddy rice” value (Paddy rice; Dose 0.25 kg/Ha, rice seedlings of 2-leaf stage transplanted, water surface application) was 2 (Herbicidal effect (or phytotoxicity) in a range of 40 to 49%), the “Phytotoxicity Paddy rice” value (Paddy rice; Dose 0.5 kg/Ha, rice seedlings of 2-leaf stage transplanted, water surface application) was 4 (Herbicidal effect (or phytotoxicity) in a range of 80 to 89%) and the “Phytotoxicity Paddy rice” value (Paddy rice; Dose 1 kg/Ha, rice seedlings of 2-leaf stage transplanted, water surface application) was 5.

For `NC(=O)NOc1cccc(Cl)c1` [m-chlorophenoxy urea], the herbicidal activites [2] was “does not show any herbicidal activites”.
